Experimental data: patent publication US20220227745A1, “Compounds For Modulating FXR” (NANJING RUIJIE PHARMA TECH CO., LTD., priority 2019, published 2022)

How the values were obtained:
[1] = molecular target: T1, hFXR-LBD (FXR-GAL4 chimeric receptor) (Homo sapiens, UniProt Q96RI1); assay: FXR Transactivation Assay (GAL4 luciferase reporter in HEK293T cells); assay type: cell-based
T1 construct: host or cells: HEK293T
T1 sequence (Q96RI1 262-486 limits assumed): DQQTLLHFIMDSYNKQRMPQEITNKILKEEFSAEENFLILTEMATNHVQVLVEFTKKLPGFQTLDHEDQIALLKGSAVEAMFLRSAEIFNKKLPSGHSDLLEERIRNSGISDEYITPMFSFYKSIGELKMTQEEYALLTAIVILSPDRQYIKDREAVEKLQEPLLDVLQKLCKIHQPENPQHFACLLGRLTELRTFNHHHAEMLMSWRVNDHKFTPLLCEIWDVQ
Protocol: FXR Transactivation Assay
The present compounds were tested to assess their ability to stimulate FXR transactivation activity. The hFXR-LBD, coding sequence was inserted into the pBIND expression vector (Promega, E1581) to express FXR-GAL4 binding domain chimeric receptors. This expression vector and reporter vector (pGL4.35 which carry a stably integrated GAL4 promoter driven luciferase reporter gene) were co-transfected into HEK293T host cells. Upon agonist binding to the corresponding FXR-GAL4 chimeric receptor, the chimeric receptor binds to the GAL4 binding sites and stimulates the reporter gene.
All the working stock were shake for 5 min on plate shaker (QILINBEIER). Second, all cells were cultured as ATCC recommended. HEK293T cells were assayed in exponential growth phase. Removed culture medium from the flask and rinsed cells with PBS. Added TrypLE solution to the flask and make cells detach. Next, cells were washed once with complete growth medium. Then, cells were pelleted and washed twice with PBS to remove phenol red and resuspend them in medium to a proper concentration. Only cells with viability greater than 90% were used for assays. Seeded 6×10^6 HEK293T cells into a 100 mm dish and incubated at 37° C. under 5% CO2 atmosphere for 16 h. Third, Trans-IT reagent and Opti-MEM mix by inversion and incubate 5 min at room temperature. The cell transfection was performed by mixing DNA and the reagent mixture, as well as 6 μg GAL4-FXR plasmid or 2 μg pGL4.35 luciferase plasmid, respectively. The reagent mixture was added to a 100 mm dish and incubated for 4-7 hrs at 37° C. under 5% CO2 atmosphere. Fourth, transferred 75 nl compound dilutions into 384-well assay plates (PerkinElmer) and seeded HEK293T cells at 17,000 cells/well using phenol red-free DMEM containing 5% charcoal/dextran-treated FBS. Then, cells were incubated for 16-20 h at 37° C. under 5% CO2 atmosphere. Finally, added 25 μl Steady-Glo™ Luciferase Assay Reagent into each well of 384-well assay plate, and then shake plate for 5 min protected from light on a plate shaker. Then, the luminescence value was read on Evision 2104 plate reader (PerkinElmer).
The activity ratio was calculated as follow: […]
RLU: Resulting Luminescence
RLUpositive: The average RLU for the positive controls across the plate.
RLUvehicle: The average RLU for negative controls across the plate.
(§1) EC50 was calculated by fitting % Activity values and log of compound concentrations to nonlinear regression (dose response-variable slope) with GraphPad 5.0.
(§2) X: log of compound concentration.

FXR LBD, GST = molecular target: T2, FXR LBD, GST (Homo sapiens, UniProt Q96RI1); assay: FXR Binding Assay (TR-FRET, Fluorescein-SRC2-2 coactivator peptide); settings: for Emax: % Activity relative to positive control, read-out: Pct Effect (Emax %); for EC50: TR-FRET FXR LBD coactivator recruitment
T2 construct: FXR LBD, GST; purchased Invitrogen PV4834
T2 sequence (Q96RI1 262-486 limits assumed): T1 sequence (Q96RI1 262-486 limits assumed)
Protocol: The interaction between the present compounds and FXR are evaluated by Time-Resolved Fluorescence Resonance Energy Transfer (TR-FRET) competition assay. FRET describes a radiation-free energy transfer between two chromophores: a donor fluorophore in its excited state can transfer energy to an acceptor fluorophore in close proximity (typically <10 nm). In contrast to standard FRET, TR-FRET unites time-resolved fluorescence (TRF) and the FRET principle, TRF use a long-lifetime lanthanide chelate as the donor species, while lanthanide chelates are unique in that their excited-state lifetime can be on the order of a millisecond or longer. Suitable neighbors for FRET are known in the art and can be obtained.
The assay was performed in following steps: first, prepared a) 1 mM compounds (100×) in DMSO; b) reaction buffer containing 1× buffer G with 10 mM DTT; c) 4×FXR LBD (20 nM) in 1× chilled buffer G. Second, performed 3-fold serial dilution of 1 mM test compounds using DMSO from 1 mM, 10 doses in a 96-well plate (249944, Nunc). Then, used complete buffer G to dilute each 100× compounds serial dilution to 2×. Third, added 10 μl 2× compound serial dilution into 384-well plate (3677, Corning). Then, added 5 μl FXR LBD into the assay plate. Prepared a solution containing 2 μM fluorescein-SRC2-2 (4×) and 20 nM Tb anti-GST antibody (4×) in buffer G at room temperature and started the reaction by adding 5 μl the above solution into each well of the assay plate. Centrifuged the assay plates at 1000 g for 1 min and then incubated at room temperature for lhr protected from light. Finally, the plate was read at wavelengths of 520 nm and 495 nm on Envision 2104 plate reader (PerkinElmer).
A ratio (Ratio520 nm/495 nm−Ratiobackground) was calculated for each well. The activity ratio was calculated as follow: […]
Ratiopositive: The average ratio for the positive control across the plate.
Ratiovehicle: The average ratio for negative controls across the plate.
as §1, §2

| Compound | EC50 [1] [nM] | Emax (FXR LBD, GST) [%] | EC50 (FXR LBD, GST) [nM] |
| --- | --- | --- | --- |
| Cn1cc(C(=O)O)c2ccc(N3CCN(CCc4c(-c5c(F)cccc5Cl)noc4C4CC4)CC3)cc21 [Example I10, 6-(4-(2-(3-(2-chloro-6-fluorophenyl)-5-cyclopropylisoxazol-4-yl)ethyl)piperazin-1-yl)-1-methyl-1H-indole-3-carboxylic Acid] | 524 | 173 | 728 |
| CC1CN(CCc2c(-c3c(Cl)cccc3Cl)noc2C2CC2)CCN1c1ccc2c(C(=O)O)cn(C)c2c1 (stereo not drawn) [Example I12, 6-(4-(2-(5-cyclopropyl-3-(2,6-dichlorophenyl)isoxazol-4-yl)ethyl)-2-methylpiperazin-1-yl)-1-methyl-1H-indole-3-carboxylic Acid] | 129 | 147 | 133 |
| O=C(O)c1ccc(N2CCN(CCc3c(-c4c(Cl)cccc4Cl)noc3C3CC3)CC2)cc1 [Example I14, 4-(4-(2-(5-cyclopropyl-3-(2,6-dichlorophenyl)isoxazol-4-yl)ethyl)piperazin-1-yl)benzoic Acid] | 912 | 142 | 655 |
| O=C(O)c1c[nH]c2cc(N3CCN(CCc4c(-c5c(Cl)cccc5Cl)noc4C4CC4)CC3)ccc12 [Example I15, 6-(4-(2-(5-cyclopropyl-3-(2,6-dichlorophenyl)isoxazol-4-yl)ethyl)piperazin-1-yl)-1H-indole-3-carboxylic Acid] | 667 | 168 | 419 |
| Cn1nc(C(=O)O)c2ccc(N3CCN(CCc4c(-c5c(Cl)cccc5Cl)noc4C4CC4)CC3)cc21 [Example I17, 6-(4-(2-(5-cyclopropyl-3-(2,6-dichlorophenyl)isoxazol-4-yl)ethyl)piperazin-1-yl)-1-methyl-1H-indazole-3-carboxylic Acid] | 1230 | 131 | 46 |
| Cn1nc2cc(N3CCN(CCc4c(-c5c(Cl)cccc5Cl)noc4C4CC4)CC3)ccc2c1C(=O)O [Example I18, 6-(4-(2-(5-cyclopropyl-3-(2,6-dichlorophenyl)isoxazol-4-yl)ethyl)piperazin-1-yl)-2-methyl-2H-indazole-3-carboxylic Acid] | 436 | 142 | 46 |
| Cn1cc(C(=O)O)c2ccc(N3CCN(CCc4c(-c5ccccc5OC(F)(F)F)noc4C4CC4)CC3)cc21 [Example I20, 6-(4-(2-(5-cyclopropyl-3-(2-(trifluoromethoxy)phenyl)isoxazol-4-yl)ethyl)piperazin-1-yl)-1-methyl-1H-indole-3-carboxylic Acid] | 906 | 193 | 450 |
| COc1cccc(Cl)c1-c1noc(C2CC2)c1CCN1CCN(c2ccc3c(C(=O)O)cn(C)c3c2)CC1 [Example I21, 6-(4-(2-(3-(2-chloro-6-methoxyphenyl)-5-cyclopropylisoxazol-4-yl)ethyl)piperazin-1-yl)-1-methyl-1H-indole-3-carboxylic Acid] | 2860 | 85.1 | 890 |
| Cc1cccc(Cl)c1-c1noc(C2CC2)c1CCN1CCN(c2ccc3c(C(=O)O)cn(C)c3c2)CC1 [Example I22, 6-(4-(2-(3-(2-chloro-6-methylphenyl)-5-cyclopropylisoxazol-4-yl)ethyl)piperazin-1-yl)-1-methyl-1H-indole-3-carboxylic Acid] | 634 | 163 | 162 |
| CC(CN1CCN(c2ccc3c(C(=O)O)cn(C)c3c2)CC1)c1c(-c2c(Cl)cccc2Cl)noc1C1CC1 (stereo not drawn) [Example I24, 6-(4-(2-(5-cyclopropyl-3-(2,6-dichlorophenyl)isoxazol-4-yl)propyl)piperazin-1-yl)-1-methyl-1H-indole-3-carboxylic Acid] | 1860 | 89.8 | 422 |
| Cn1cc(C(=O)O)c2ccc(N3CCN(CCc4c(-c5c(Cl)cccc5Cl)noc4C4CC4)CC3(C)C)cc21 [Example I25, 6-(4-(2-(5-cyclopropyl-3-(2,6-dichlorophenyl)isoxazol-4-yl)ethyl)-2,2-dimethylpiperazin-1-yl)-1-methyl-1H-indole-3-carboxylic Acid] | 288 | 151 | 83 |
